Reference: patent publication US20190209569A1, “PHARMACEUTICAL COMPOSITION FOR SUPPRESSING APPETITE, CONTAINING N2-(M-TRIFLUOROBENZYL), N6-(P-NITROBENZYL)PURINE (TNP) OR PHARMACEUTICALLY ACCEPTABLE SALT THEREOF AS ACTIVE INGREDIENT” (priority 2016, published 2019)

Columns and labels:
food intake = assay: Effect of single administration of TNP in the third ventricle on food intake; type: in vivo, mouse
Method: (§1) Adult male C57BL/6 mice were purchased from Orient Bio (Gyeonggi-do, Korea) and the mice were allowed to take the standard diet (Agri Purina, Seoul, Korea) freely. The mice were raised in the controlled condition (temperature: 22±1° C., light/dark cycle: 12/12 hr (light condition: 8:00 am˜8:00 pm)). A cannula was intubated in the third ventricle of the mouse for the administration of TNP. For the cannulation, the mouse was anesthetized with a mixture of Zoletil and Rumpun (2:1 v/v, 10 μl/g weight) and then a permanent 26-gauge stainless steel cannula was inserted in the third ventricle of the mouse. The insertion position of the cannula was 1.8 mm back from the bregma and 5.0 mm down from the sagittal sinus. The exact cannulation site was confirmed by the positive dipsogenic response after the administration of angiotensin II (50 ng). Only those mice that were confirmed to have cannulae in the correct location were used for data analysis. After the 7 day recovery period, the mice were massaged every day for 1 week in order to minimize the stress response to the experiment.
The mice cannulated in Example 1 were fasted for 18 hours and then administered at different concentrations of TNP (0.4 pg, 0.04 ng, and 0.4 ng; Calbiochem) in the early light phase (9:00 am˜11:00 am). Before the administration, TNP was dissolved in 0.9% saline. 2 μl of the TNP dissolved in saline at different concentrations (0.4 pg, 0.04 ng, and 0.4 ng) was administered via the cannula into the third ventricle. For the control, the same amount of saline was administered.
5 mice treated with saline, 5 mice treated with 0.4 pg of TNP, 5 mice treated with 0.04 ng of TNP, and 4 mice treated with 0.4 ng of TNP were fasted for 18 hours as described in Example 2. TNP was administered once into the third ventricle of the mice. Then, the mice were allowed to take food freely and the food intake was measured for 24 hours.
All experimental values of the present invention were expressed as mean±standard error ([…]). Statistical analysis was performed by Student's t-test. […]

weight gaining = assay: Effect of single administration of TNP in the third ventricle on weight control; type: in vivo, mouse; details: mice fasted for 18 hours; single administration of 0.4 pg, 0.04 ng or 0.4 ng into the third ventricle; observed for 24 hours; FIG. 2
Method: as §1
The mice cannulated in Example 1 were fasted for 18 hours and then administered at different concentrations of TNP (0.4 pg, 0.04 ng, and 0.4 ng; Calbiochem) in the early light phase (9:00 am˜11:00 am). Before the administration, TNP was dissolved in 0.9% saline. […]

[1] = single administration into the third ventricle, 0.4 pg, 0.04 ng, 0.4 ng, vs saline

O=[N+]([O-])c1ccc(CNc2nc(NCc3cccc(C(F)(F)F)c3)nc3[nH]cnc23)cc1 [TNP, N2-(m-Trifluorobenzyl), N6-(p-nitrobenzyl)purine]
food intake compared to the mice administered with saline (food intake; male C57BL/6 mice fasted for 18 hours, single administration of 0.4 pg, 0.04 ng or 0.4 ng into the third ventricle, food intake measured for 24 hours, FIG. 1): significantly reduced | time after administration at which the food intake reduction effect was still maintained (food intake; [1]): ≥ 24 h | time after administration from which the food intake reduction effect was significant (food intake; [1]): 2 h | weight gaining compared to the control mice treated with saline (weight gaining): significantly suppressed
